Source: patent US20190375708A1 (VenatoRx Pharmaceuticals, Inc., priority 2018, published 2019)

How the values were obtained:
[1] = In vitro cytotoxicity assay (MTT cell viability) in HepG2 cells; format: cell-based, human; conditions: human
How it was run: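 Read-out: MTT formazan absorbance at 492 nm, expressed as % of vehicle signal; CC50 by 4-parameter non-linear regression. Parental HepG2, 20,000 cells/well, treated 7 days with compound from 30 μM down to 1.0 nM.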

[2] = tested on: HBV replication in HepAD38 cells; assay: Anti-HBV replication assay in HepAD38 cells (QPCR of extracellular HBV DNA); format: cell-based, HBV (genotype D, serotype ayw); conditions: Hepatitis B virus, 168 h, 7 days incubation, extracellular HBV DNA by QPCR, read-out: Anti-HBV EC50
How it was run: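 Read-out is QPCR of HBV DNA released into culture supernatant, converted to percent of vehicle control and fitted to give EC50. Cells were HepAD38 induced by tetracycline removal and dosed […] for 7 days.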

SMILES	CC50 at 7 days [1] [nM]	EC50 [2] [nM]
O=C(NC1(CO)CCC1)C(=O)c1c(Cl)c(C(=O)Nc2ccc(F)c(F)c2)c2n1CCCC2 [Example 499, 2-chloro-N-(3,4-difluorophenyl)-3-(2-((1-(hydroxymethyl)cyclobutyl)amino)-2-oxoacetyl)-5,6,7,8-tetrahydroindolizine-1-carboxamide]	> 30000	< 50
Cc1cc(NC(=O)c2cc(C(=O)C(=O)NC(C)(C)CO)n3c2CCC3)ccc1F [Example 537, N-(4-fluoro-3-methylphenyl)-5-(2-((1-hydroxy-2-methylpropan-2-yl)amino)-2-oxoacetyl)-2,3-dihydro-1H-pyrrolizine-7-carboxamide]	> 30000	50 to 499
Cc1noc(C(C)NC(=O)C(=O)c2c(C)c(C(=O)Nc3ccc(F)c(C)c3)c(C)n2C)n1 (stereo not shown) [Example 82, N-(4-fluoro-3-methylphenyl)-1,2,4-trimethyl-5-(2-((1-(3-methyl-1,2,4-oxadiazol-5-yl)ethyl)amino)-2-oxoacetyl)-1H-pyrrole-3-carboxamide]	> 30000	< 50
Cc1c(C(=O)Nc2ccc(F)c(F)c2)c2n(c1C(=O)C(=O)Nc1ccc(B(O)O)cc1)CCCC2 [Example 738, (4-(2-(1-((3,4-difluorophenyl)carbamoyl)-2-methyl-5,6,7,8-tetrahdyroindolizin-3-yl)-2-oxoacetamido)phenyl)boronic acid]	> 30000	50 to 499
Cc1cc(NC(=O)c2c(C)c(C(=O)C(=O)NCC(=O)N3CCOCC3)n(C)c2C)ccc1F [Example 299, N-(4-fluoro-3-methylphenyl)-1,2,4-trimethyl-5-(2-((2-morpholino-2-oxoethyl)amino)-2-oxoacetyl)-1H-pyrrole-3-carboxamide]	> 30000	50 to 499
Cc1c(C(=O)Nc2cc(F)c(F)c(F)c2)c(Cl)c(C(=O)C(=O)NCC(C)(C)O)n1C [Example 372, 4-chloro-5-(2-((2-hydroxy-2-methylpropyl)amino)-2-oxoacetyl)-1,2-dimethyl-N-(3,4,5-trifluorophenyl)-1H-pyrrole-3-carboxamide]	500 to 4990	< 50
Cc1cc(NC(=O)c2c(C)c(C(=O)C(=O)N[C@H](C(=O)O)[C@@H](C)O)n(C)c2C)ccc1F [Example 34, (2-(4-((4-fluoro-3-methylphenyl)carbamoyl)-1,3,5-trimethyl-1H-pyrrol-2-yl)-2-oxoacetyl)-L-threonine]	> 30000	> 1000
Cc1c(C(=O)Nc2ccc(F)nc2)c(C)n(C)c1C(=O)C(=O)N[C@]1(C)CC[C@H](O)CC1 [Example 240, N-(6-fluoropyridin-3-yl)-5-(2-(((1s,4s)-4-hydroxy-1-methylcyclohexyl)amino)-2-oxoacetyl)-1,2,4-trimethyl-1H-pyrrole-3-carboxmaide]	> 30000	50 to 499
CC(C)(O)CNC(=O)C(=O)c1c(Cl)c(C(=O)Nc2ccnc(F)c2)c2n1CCCC2 [Example 530, 2-chloro-N-(22-fluoropyridin-4-yl)-3-(22-((2-hydroxy-2-methylpropyl)amino)-2-oxoacetyl)-5,6,7,8-tetrahydroindolizine-1-carboxamide]	> 30000	> 1000
Cc1cc(NC(=O)c2c(C)c(C(=O)C(=O)N[C@H](C(=O)O)C(C)C)n(C)c2C)ccc1F [Example 100, (2-(4-((4-fluoro-3-methylphenyl)carbamoyl)-1,3,5-trimethyl-1H-pyrrol-2-yl)-2-oxoacetyl)-L-valine]	5000 to 30000	> 1000
Cc1cc(NC(=O)c2c(Cl)c(C(=O)C(=O)N[C@H]3CCC[C@H]3O)n3c2CCC3)ccc1F [Example 547, 6-chloro-N-(4-fluoro-3-methylphenyl)-5-(2-(((1S,2R)-2-hydroxycyclopentyl)amino)-2-oxoacetyl)-2,3-dihydro-1H-pyrrolizine-7-carboxamide]	5000 to 30000	50 to 499
Cc1cc(NC(=O)c2c(C)c(C(=O)C(=O)NCC3(N)CCCCC3)n(C)c2C)ccc1F [Example 337, 5-(2-(((1-aminocyclohexyl)methyl)amino)-2-oxoacetyl)-N-(4-fluoro-3-methylphenyl)-1,2,4-trimethyl-1H-pyrrole-3-carboxamide]	5000 to 30000	500 to 1000
CC(=O)N1CC[C@@H](NC(=O)C(=O)c2c(C)c(C(=O)Nc3ccc(F)c(C)c3)c(C)n2C)C1 [Example 664, (R)-5-(2-((1-acetylpyrrolidin-3-yl)amino)-2-oxoacetyl)-N-(4-fluoro-3-methylphenyl)-1,2,4-trimethyl-1H-pyrrole-3-carboxamide]	> 30000	< 50
Cc1cc(NC(=O)c2cc(C(=O)C(=O)NC(C)(C)C(F)(F)F)n3c2CCCC3)ccc1F [Example 409, N-(4-fluoro-3-methylphenyl)-3-(2-oxo-2-((1,1,1-trifluoro-2-methylpropan-2-yl)amino)acetyl)-5,6,7,8-tetrahydroindolizine-1-carboxamide]	> 30000	50 to 499
Cc1c(C(=O)Nc2ccc(F)c(Cl)c2)c2n(c1C(=O)C(=O)N[C@H]1CCC[C@H]1O)CCCC2 [Example 451, N-(3-chloro-4-fluorophenyl)-3-(2-(((1S,2R)-2-hydroxycyclopentyl)amino)-2-oxoacetyl)-2-methyl-5,6,7,8-tetrahydroindolizine-1-carboxamide]	5000 to 30000	50 to 499
Cc1cc(NC(=O)c2c(C)c(C(=O)C(=O)NC(C)CN3CCOCC3)n(C)c2C)ccc1F (stereo not shown) [Example 290, N-(4-fluoro-3-methylphenyl)-1,2,4-trimethyl-5-(2-((1-morpholinopropan-2-yl)amino)-2-oxoacetyl)-1H-pyrrole-3-carboxamide]	> 30000	< 50
Cc1c(C(=O)Nc2ccc(F)c(Cl)c2)c(Cl)c(C(=O)C(=O)NC(C)(C)C)n1C [Example 370, 5-(2-(tert-butylamino)-2-oxoacetyl)-4-chloro-N-(3-chloro-4-fluorophenyl)-1,2-dimethyl-1H-pyrrole-3-carboxamide]	> 30000	< 50
Cc1cc(NC(=O)c2c(C)c(C(=O)C(=O)NC(C)(C)C(C)(C)O)n(C)c2C)ccc1F [Example 617, N-(4-fluoro-3-methylphenyl)-5-(2-((3-hydroxy-2,3-dimethylbutan-2-yl)amino)-2-oxoacetyl)-1,2,4-trimethyl-1H-pyrrole-3-carboxamide]	> 30000	< 50
Cc1cc(NC(=O)c2c(C)c(C(=O)C(=O)N[C@]3(C(F)(F)F)CC[C@H](O)CC3)n(C)c2C)ccc1F [Example 282, N-(4-fluoro-3-methylphenyl)-5-(2-(((1s,4s)-4-hydroxy-1-(trifluoromethyl)cyclohexyl)amino)-2-oxoacetyl)-1,2,4-trimethyl-1H-pyrrole-3-carboxamide]	> 30000	< 50
Cc1cc(NC(=O)c2cc(C(=O)C(=O)N3CCc4nc(N)sc4C3)n3c2CCCC3)ccc1F [Example 421, 3-(2-(2-amino-6,7-dihydrothiazolo[5,4-c]pyridin-5(4H)-yl)-2-oxoacetyl)-N-(4-fluoro-3-methylphenyl)-5,6,7,8-tetrahydroindolizine-1-carboxamide]	> 30000	> 1000
Cc1cc(NC(=O)c2c(C)c(C(=O)C(=O)NC3(CO)CC(F)(F)C3)n3c2CCCC3)ccc1F [Example 441, 3-(2-((3,3-difluoro-1-(hydroxymethyl)cyclobutyl)amino)-2-oxoacetyl)-N-(4-fluoro-3-methylphenyl)-2-methyl-5,6,7,8-tetrahydroindolizine-1-carboxamide]	5000 to 30000	< 50
CO[C@H]1CC[C@@H](NC(=O)C(=O)c2c(C)c(C(=O)Nc3cnc(F)c(C)c3)c(C)n2C)CC1 [Example 344, N-(6-fluoro-5-methylpyridin-3-yl)-5-(2-(((1s,4s)-4-methoxycyclohexyl)amino)-2-oxoacetyl)-1,2,4-trimethyl-1H-pyrrole-3-carboxamide]	> 30000	50 to 499
Cc1cc(NC(=O)c2c(C)c(C(=O)C(=O)NC3(CO)CC3)n3c2CCCC3)ccc1F [Example 445, N-(4-fluoro-3-methylphenyl)-3-(2-((1-(hydroxymethyl)cyclopropyl)amino)-2-oxoacetyl)-2-methyl-5,6,7,8-tetrahydroindolizine-1-carboxamide]	5000 to 30000	< 50
CC(=O)N1CC(C)(NC(=O)C(=O)c2c(C)c(C(=O)Nc3ccc(F)c(C)c3)c(C)n2C)C1 [Example 645, 5-(2-((1-acetyl-3-methylazetidin-3-yl)amno)-2-oxoacetyl)-N-(4-fluoro-3-methylphenyl)-1,2,4-trimethyl-1H-pyrrole-3-carboxamide]	> 30000	< 50
Cc1c(C(=O)Nc2cccc(Cl)c2)c(C)n(C)c1C(=O)C(=O)NC1(C(F)(F)F)CCOCC1 [Example 604, N-(3-chlorophenyl)-1,2,4-trimethyl-5-(3-oxo-2-((4-(trifluoromethyl)tetrahydro-2H-pyran-4-yl)amino)acetyl)-1H-pyrrole-3-carboxamide]	5000 to 30000	< 50
Cc1noc([C@H](NC(=O)C(=O)c2c(C)c(C(=O)Nc3ccc(F)c(C)c3)c(C)n2C)C(C)C)n1 [Example 144, (R)-N-(4-fluoro-3-methylphenyl)-1,2,4-trimethyl-5-(2-((2-methyl-1-(3-methyl-1,2,4-oxadiazol-5-yl)propyl)amino)-2-oxoacetyl)-1H-pyrrole-3-carboxamide]	> 30000	< 50
